Assay [1] deals with guinea pig tracheal spiral preparations. The experiment in a line: Bronchodilation in vitro; guinea pig tracheal spiral preparations. The format is cell-based. Particulars: Cavia porcellus; for Emax: guinea pig tracheal spirals, relaxation relative to 10^-3 M isoprenaline, read-out: Intrinsic Activity; for IC50: relaxation as percentage of total relaxation by 10^-3 M isoprenaline, cumulative dosing 10^-8 - 2×10^-5 M, 37° C. Here is the method: (a) Bronchodilation in vitro; guinea pig tracheal spiral preparations
Male guinea pigs (300-600 g) were stunned by a blow to the head and bled from the carotid artery. The trachea was exposed, dissected free of connective tissue, and transferred to oxygenated krebs solution at 37° C. Next, spirals (2 per trachea) were prepared by cutting the whole trachea spirally along its longitudinal axis and then dividing this spiral lengthwise. Each preparation was mounted, using silk thread, in a 10 ml organ bath filled with krebs solution at 37° C. and bubbled with 5% CO2 with O2. The resting tension of the preparations was set at 2 g and changes in muscle tension were monitored isometrically by means of a UFI (2 oz) force and displacement transducer (Ormed Ltd) connected to a Linseis pen recorder. All preparations were allowed to equilibrate for 60 minutes. During this equilibration period the preparations were washed by upward displacement at 15 minute intervals and, if necessary, the resting tension was readjusted to 2 g using a mechanical micromanipulator system.
Once a steady resting tension had been obtained, the preparations were dosed cumulatively with the test compound (10^-8 -2×10^-5 M), and finally a maximum relaxation achieved by addition of 10^-3 M isoprenaline. The fall in tension evoked by the test compound was expressed as a percentage of the total relaxation evoked in the presence of 10^-3 M isoprenaline. Appropriate concentration-relaxation curves were then constructed and values for potency (IC50) were obtained.
The composition of Krebs solution is: sodium chloride 118.07 mM, sodium hydrogen carbonate 26.19 mM, potassium chloride 4.68 mM, potassium orthophosphate 1.18 mM, magnesium sulphate septahydrate 1.8 mM and calcium chloride 2.52 mM; pH ca. 7.45.

The subject of assay [2] is Spontaneously hypertensive rats. As to the kind of experiment: Blood Pressure Lowering Activity (systolic blood pressure, tail cuff method). In kind it is in vivo, rat. Here is the method:
Blood Pressure Lowering Activity
Systolic blood pressures were recorded by a modification of the tail cuff method described by I. M. Claxton, M. G. Palfreyman, R. H. Poyser, R. L. Whiting, European Journal of Pharmacology, 37, 179 (1976). A W+W BP recorder, model 8005 was used to display pulses. Prior to all measurements rats were placed in a heated environment (33.5°±0.5° C.) before transfer to a restraining cage. Each determination of blood pressure was the mean of at least 6 readings. Spontaneously hypertensive rats (ages 12-18 weeks) with systolic blood pressures>180 mmHg were considered hypertensive.

What is called IC50 is the midpoint of a concentration-inhibition curve.

Regarding `CC1(C)Oc2ccc(C#N)cc2[C@@H](n2ccccc2=O)[C@@H]1O` (relative stereo) [Example 1, Trans-6-Cyano-3,4-dihydro-2,2-dimethyl-4-(2(1H)-pyridon-1-yl)-2H-1-benzopyran-3-ol], in assay [1], the Emax amounted to 96%. Besides, half-maximal inhibition in assay [1] (IC50) was put at 790 nM. The “% Change in Systolic B.P.” value in assay [2] (0.1 mg/kg p.o., 1 h post dose) is -12 ± 5%; in assay [2] (0.1 mg/kg p.o., 2 h post dose), -20 ± 2%; in assay [2] (0.1 mg/kg p.o., 4 h post dose), -21 ± 3%; in assay [2] (0.1 mg/kg p.o., 6 h post dose), -23 ± 5%.
As for `CC1(C)Oc2ccc(C(F)(F)F)cc2[C@@H](n2ccccc2=O)[C@@H]1O` (relative stereo) [Example 4, Trans-3,4-Dihydro-2,2-dimethyl-6-trifluoromethyl-4-(2(1H)-pyridon-1-yl)-2H-1-benzopyran-3-ol], the Emax in assay [1] was determined as 95%. This compound returned an IC50 in assay [1] of 540 nM. The “% Change in Systolic B.P.” value in assay [2] (0.3 mg/kg p.o., 2 h post dose) was -42 ± 3%; in assay [2] (0.3 mg/kg p.o., 4 h post dose), -32 ± 5%; in assay [2] (0.3 mg/kg p.o., 6 h post dose) it was -34%.
For the compound `CC1(C)Oc2ccncc2[C@@H](n2ccccc2=O)[C@@H]1O` (relative stereo) [Example 6], in assay [1], the Emax amounted to 81% and it took 5500 nM to reach half-maximal inhibition (IC50).
For the compound `CC1(C)C=C(n2ccccc2=O)c2cc(C#N)ccc2O1` [Example 2, 6-Cyano-2,2-dimethyl-4-(2(1H)-pyridon-1-yl)-2H-1-benzopyran], the Emax in assay [1] was determined as 92%. Besides, in assay [1], the midpoint of inhibition, the IC50, lay at 100 nM. The “% Change in Systolic B.P.” value is -41 ± 3% in assay [2] (0.03 mg/kg p.o., 2 h post dose); -38% in assay [2] (0.03 mg/kg p.o., 4 h post dose); -32 ± 3% in assay [2] (0.03 mg/kg p.o., 6 h post dose).
Consider `CC1(C)C=C(n2ccc(=O)cc2)c2cc(C#N)ccc2O1` [Example 3, 6-Cyano-2,2-dimethyl-4-(4(1H)-pyridon-1-yl)-2H-1-benzopyran], for which the Emax in assay [1] was found to be 75%. For the same compound, half-maximal inhibition in assay [1] (IC50) required 11000 nM. Also, the “% Change in Systolic B.P.” value in assay [2] (3 mg/kg p.o., 1 h post dose) was -46 ± 7%; in assay [2] (3 mg/kg p.o., 2 h post dose) it was -49 ± 3%; in assay [2] (3 mg/kg p.o., 4 h post dose), -63%; in assay [2] (3 mg/kg p.o., 6 h post dose) it was -57 ± 3%.
As for `CC1(C)C=C(n2ccccc2=O)c2cc(C(F)(F)F)ccc2O1` [Example 5, 2,2-Dimethyl-6-trifluoromethyl-4-(2(1H)-pyridon-1-yl)-2H-1-benzopyran], the Emax in assay [1] came out at 99%. The compound also came in with a half-inhibitory concentration (IC50) in assay [1] of 52 nM. Moreover, the “% Change in Systolic B.P.” value in assay [2] (0.03 mg/kg p.o., 1 h post dose) is recorded as -15 ± 3%; in assay [2] (0.03 mg/kg p.o., 2 h post dose) it was -20 ± 1%; in assay [2] (0.03 mg/kg p.o., 4 h post dose), -25 ± 3%; in assay [2] (0.03 mg/kg p.o., 6 h post dose), -28 ± 1%.
Regarding `CC1(C)C=C(n2ccccc2=O)c2cnccc2O1` [Example 7, 2,2-Dimethyl-4-(2(1H)-pyridon-1-yl)-2H-pyrano[3,2-c]pyridine], in assay [1], the Emax turned out to be 93% and half-maximal inhibition (IC50) was put at 2400 nM.

The record behind these values is patent US5254557A, “Compound and treatment” (Beecham Group p.l.c., priority 1988, dated 1993).
